Reference: US20040138199A1, “Benzoxazines and derivatives thereof as therapeutic agents” (priority 2002, published 2004)

target: T1, p101/p110γ protein (PI3Kγ) (Homo sapiens, UniProt P48736); experiment: PI3Kγ In Vitro Kinase Assay; assay type: biochemical; details: purified recombinant p101/p110γ with G protein β1/γ2 subunits; 20 μM ATP, 25 μM PIP2; 20 minutes at room temperature; radioactive PIP3 readout
T1 construct: HA; made in house; host or cells: Spodoptera frugiperda (Sf9) cells, baculovirus coinfection
Procedure, shortened: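 Baculovirus/Sf9-expressed p101/p110γ (~2.7 nM) with G protein β1/γ2, 20 μM ATP plus [γ-32P]ATP, PIP2/PE micelles (25 μM PIP2, 300 μM PE, 10 mM MgCl2) in HEPES buffer. Reaction 20 min at room temperature, stopped with H3PO4; radiolabelled PIP3 counted on filters to derive IC50 (μM).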

T1 sequence (P48736 whole entry, species assumed): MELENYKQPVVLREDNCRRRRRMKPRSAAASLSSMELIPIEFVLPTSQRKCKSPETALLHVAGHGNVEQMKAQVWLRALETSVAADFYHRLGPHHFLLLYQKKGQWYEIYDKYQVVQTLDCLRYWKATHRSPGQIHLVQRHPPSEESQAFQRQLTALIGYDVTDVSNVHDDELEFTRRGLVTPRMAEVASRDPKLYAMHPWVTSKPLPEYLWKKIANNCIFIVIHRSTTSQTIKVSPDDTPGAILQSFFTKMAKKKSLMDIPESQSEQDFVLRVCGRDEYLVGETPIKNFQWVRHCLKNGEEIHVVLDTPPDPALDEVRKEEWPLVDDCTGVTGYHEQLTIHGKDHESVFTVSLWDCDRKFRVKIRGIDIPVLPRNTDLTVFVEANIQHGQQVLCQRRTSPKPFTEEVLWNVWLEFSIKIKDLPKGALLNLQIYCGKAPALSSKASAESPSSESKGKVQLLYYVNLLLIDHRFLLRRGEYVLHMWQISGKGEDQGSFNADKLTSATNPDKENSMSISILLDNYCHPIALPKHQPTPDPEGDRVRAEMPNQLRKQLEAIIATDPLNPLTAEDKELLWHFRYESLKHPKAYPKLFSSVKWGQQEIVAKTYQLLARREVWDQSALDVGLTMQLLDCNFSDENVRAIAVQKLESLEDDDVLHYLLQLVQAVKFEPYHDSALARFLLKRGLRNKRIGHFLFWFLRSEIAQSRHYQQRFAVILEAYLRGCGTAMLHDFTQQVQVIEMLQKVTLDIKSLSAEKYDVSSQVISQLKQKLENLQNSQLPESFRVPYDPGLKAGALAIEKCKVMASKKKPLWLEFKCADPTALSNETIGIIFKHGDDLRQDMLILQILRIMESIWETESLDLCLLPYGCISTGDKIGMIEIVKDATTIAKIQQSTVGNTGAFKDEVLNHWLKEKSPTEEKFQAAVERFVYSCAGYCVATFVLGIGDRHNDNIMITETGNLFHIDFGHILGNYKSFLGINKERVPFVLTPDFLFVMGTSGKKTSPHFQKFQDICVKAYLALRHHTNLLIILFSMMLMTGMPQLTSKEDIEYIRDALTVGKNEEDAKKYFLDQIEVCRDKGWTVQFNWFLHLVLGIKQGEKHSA
T1 sequence (Q8WYR1 whole entry partner, species assumed): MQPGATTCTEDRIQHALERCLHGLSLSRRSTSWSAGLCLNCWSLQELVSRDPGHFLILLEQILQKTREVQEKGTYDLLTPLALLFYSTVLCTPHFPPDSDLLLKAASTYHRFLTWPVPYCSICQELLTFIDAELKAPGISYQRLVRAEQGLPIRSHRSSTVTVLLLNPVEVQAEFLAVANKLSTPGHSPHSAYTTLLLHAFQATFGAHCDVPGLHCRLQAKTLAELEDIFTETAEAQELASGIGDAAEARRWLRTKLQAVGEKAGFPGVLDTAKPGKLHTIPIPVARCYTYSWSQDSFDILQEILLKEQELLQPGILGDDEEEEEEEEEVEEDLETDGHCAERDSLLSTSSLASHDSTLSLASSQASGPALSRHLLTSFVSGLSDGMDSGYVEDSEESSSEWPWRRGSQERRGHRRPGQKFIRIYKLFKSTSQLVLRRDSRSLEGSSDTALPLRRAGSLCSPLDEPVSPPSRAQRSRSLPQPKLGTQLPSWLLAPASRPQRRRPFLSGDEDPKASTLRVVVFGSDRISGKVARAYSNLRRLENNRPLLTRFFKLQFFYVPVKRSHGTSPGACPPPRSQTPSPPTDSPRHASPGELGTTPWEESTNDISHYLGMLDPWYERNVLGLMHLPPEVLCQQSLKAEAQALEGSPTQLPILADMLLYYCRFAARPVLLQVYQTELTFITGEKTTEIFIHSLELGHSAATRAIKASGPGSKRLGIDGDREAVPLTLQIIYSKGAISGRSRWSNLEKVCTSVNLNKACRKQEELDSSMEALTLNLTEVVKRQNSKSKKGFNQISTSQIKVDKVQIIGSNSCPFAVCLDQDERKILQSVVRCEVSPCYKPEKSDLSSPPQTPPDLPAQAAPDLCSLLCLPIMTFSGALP

Compound | IC50
CCCCC(=O)N1CCOc2ccc(C=C3SC(=S)NC3=O)cc21 [Example 96, 5-(4-Pentanoyl-3,4-dihydro-2H-1,4-benzoxazin-6-ylmethylene)-2-thioxo-thiazolidin-4-one] | 5 nM
CC(C)(C)C(=O)N1CCOc2ccc(C=C3SC(=S)NC3=O)cc21 [Example 97, 5-[4-(2,2-Dimethyl-propionyl)-3,4-dihydro-2H-1,4-benzoxazin-6-ylmethylene]-2-thioxo-thiazolidin-4-one] | 1610 nM
CCCCCCCCC(=O)N1CCOc2ccc(C=C3SC(=S)NC3=O)cc21 [Example 98, 5-[4-(4-Nonanoyl)-3,4-dihydro-2H-1,4-benzoxazin-6-ylmethylene]-2-thioxo-thiazolidin-4-one] | 25 nM
CCCCC(CC)C(=O)N1CCOc2ccc(C=C3SC(=S)NC3=O)cc21 (centres unmarked) [Example 99, 5-[4-(2-Ethyl-hexanoyl)-3,4-dihydro-2H-1,4-benzoxazin-6-ylmethylene]-2-thioxo-thiazolidin-4-one] | 275 nM
CC(=O)OC(C)C(=O)N1CCOc2ccc(C=C3SC(=S)NC3=O)cc21 (centres unmarked) [Example 100, Acetic acid 1-methyl-2-oxo-2-[6-(4-oxo-2-thioxo-thiazolidin-5-ylidenemethyl)-2,3-dihydro-1,4-benzoxazin-4-yl]-ethyl ester] | 535 nM
COC(=O)CCC(=O)N1CCOc2ccc(C=C3SC(=S)NC3=O)cc21 [Example 101, 4-Oxo-4-[6-(4-oxo-2-thioxo-thiazolidin-5-ylidenemethyl)-2,3-dihydro-1,4-benzoxazin-4-yl]-butyric acid methyl ester] | 20 nM
CC(=O)N1CCC(C(=O)N2CCOc3ccc(C=C4SC(=S)NC4=O)cc32)CC1 [Example 102, 5-[4-(1-Acetyl-piperidine-4-carbonyl)-3,4-dihydro-2H-1,4-benzoxazin-6-ylmethylene]-2-thioxo-thiazolidin-4-one] | 37 nM
O=C1NC(=S)SC1=Cc1ccc2c(c1)NCCCO2 [Example 103, 5-(6,7,8,9-Tetrahydro-5-oxa-9-aza-benzocyclohepten-2-ylmethylene)-2-thioxo-thiazolidin-4-one] | 445 nM
O=C1NC(=S)SC1=Cc1ccc2c(c1)N(C(=O)Oc1cccc3ccccc13)CCCO2 [Example 106, 2-(4-Oxo-2-thioxo-thiazolidin-5-ylidenemethyl)-7,8-dihydro-6H-5-oxa-9-aza-benzocycloheptene-9-carboxylic acid naphthalen-1-yl ester] | 400 nM
COC(=O)c1ccc(OC(=O)N2CCCOc3ccc(C=C4SC(=S)NC4=O)cc32)cc1 [Example 108, 2-(4-Oxo-2-thioxo-thiazolidin-5-ylidenemethyl)-7,8-dihydro-6H-5-oxa-9-aza-benzocycloheptene-9-carboxylic acid 4-methoxycarbonyl-phenyl ester] | 640 nM
O=C1NC(=S)SC1=Cc1ccc2c(c1)N(C(=O)COc1ccc(Cl)cc1)CCCO2 [Example 109, 5-{9-[2-(4-Chloro-phenoxy)-acetyl]-6,7,8,9-tetrahydro-5-oxa-9-aza-benzocyclohepten-2-ylmethylene}-2-thioxo-thiazolidin-4-one] | 2030 nM
O=C1NC(=S)SC1=Cc1ccc2c(c1)N(C(=O)c1ccc3nonc3c1)CCCO2 [Example 116, 5-[9-(Benzofurazan-5-carbonyl)-6,7,8,9-tetrahydro-5-oxa-9-aza-benzocyclohepten-2-ylmethylene]-2-thioxo-thiazolidin-4-one] | 1530 nM
O=C1NC(=S)SC1=Cc1ccc2c(c1)N(C(=O)c1cccnc1)CCCO2 [Example 117, 5-[9-(Pyridine-3-carbonyl)-6,7,8,9-tetrahydro-5-oxa-9-aza-benzocyclohepten-2-ylmethylene]-2-thioxo-thiazolidin-4-one] | 1910 nM
O=C1NC(=S)SC1=Cc1ccc2c(c1)N(C(=O)Nc1ccc(Oc3ccccc3)cc1)CCCO2 [Example 118, 2-(4-Oxo-2-thioxo-thiazolidin-5-ylidenemethyl)-7,8-dihydro-6H-5-oxa-9-aza-benzocycloheptene-9-carboxylic acid (4-phenoxy-phenyl)-amide] | 1870 nM
O=C1NC(=S)SC1=Cc1ccc2c(c1)N(C(=O)Nc1ccc(Cl)cc1C(F)(F)F)CCCO2 [Example 120, 2-(4-Oxo-2-thioxo-thiazolidin-5-ylidenemethyl)-7,8-dihydro-6H-5-oxa-9-aza-benzocycloheptene-9-carboxylic acid (4-chloro-2-trifluoromethyl-phenyl)-amide] | 1870 nM
COc1cccc(NC(=O)N2CCCOc3ccc(C=C4SC(=S)NC4=O)cc32)c1 [Example 122, 2-(4-Oxo-2-thioxo-thiazolidin-5-ylidenemethyl)-7,8-dihydro-6H-5-oxa-9-aza-benzocycloheptene-9-carboxylic acid (3-methoxy-phenyl)-amide] | 2170 nM
O=C1NC(=S)SC1=Cc1ccc2c(c1)N(C(=O)c1ccco1)CCCO2 [Example 123, 5-[9-(Furan-2-carbonyl)-6,7,8,9-tetrahydro-5-oxa-9-aza-benzocyclohepten-2-ylmethylene]-2-thioxo-thiazolidin-4-one] | 3900 nM
